Our source for the Ki values is ChEMBL document CHEMBL1140370, “Molecular modeling and molecular dynamics simulation of the human A2B adenosine receptor. The study of the possible binding modes of the A2B receptor antagonists” (J Med Chem, 2005).

The structures appear in SMILES notation.

For this test, the target named is T1, Adenosine receptor A2b (Homo sapiens, UniProt P29275).
T1 sequence (P29275 whole entry): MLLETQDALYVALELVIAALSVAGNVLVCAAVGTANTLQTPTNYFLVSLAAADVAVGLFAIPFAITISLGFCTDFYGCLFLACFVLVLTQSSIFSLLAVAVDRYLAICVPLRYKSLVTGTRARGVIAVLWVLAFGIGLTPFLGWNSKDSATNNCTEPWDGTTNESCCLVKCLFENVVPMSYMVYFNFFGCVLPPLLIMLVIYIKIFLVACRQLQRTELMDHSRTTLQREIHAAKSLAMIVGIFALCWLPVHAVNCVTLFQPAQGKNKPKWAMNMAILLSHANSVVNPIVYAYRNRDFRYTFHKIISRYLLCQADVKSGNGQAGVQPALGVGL
Kind of test: Antagonist activity against human Adenosine A2b receptor. It counts as functional.

For orientation: Ki means the equilibrium dissociation constant of an inhibitor or competing ligand from its target. The low end stands for tighter binding, the high end for weaker binding. On to `CCCn1c(=O)c2[nH]c(-c3ccc(OCC(=O)Nc4ccc(F)cc4)nc3)nc2n(CCC)c1=O`, for which the inhibition constant Ki turned out to be 4.8 nM.

The molecule `CCCn1c(=O)c2[nH]c(-c3cc(OCC(=O)O)no3)nc2n(CCC)c1=O` displayed an inhibition constant (Ki) of 18 nM.
